Earlier results, collected in patent publication EP0687181B1, “USE OF THYMOSIN FOR TREATING HEPATITIS C IN NON-RESPONDERS TO INTERFERON TREATMENT” (ALPHA 1 BIOMEDICALS, INC., priority 1993, dated 2001).
Where no end group is shown, it is not given here.

Experiments:
influenza vaccine = conditions: drug recipients
HCV-related diseases = conditions: in vivo

**Q.** For “Ac-SDAAVDTSSEITTKDLKEKKEVVEEAEN [Thymosin α-1]”, which toxicity (influenza vaccine) is on record?
**A.** No clinical or biochemical toxicity

**Q.** Which “effect on progression of HCV-related diseases” value (HCV-related diseases) does the source give for `Nc1nc2c(ncn2COCCO)c(=O)[nH]1` [acyclovir] here?
**A.** ineffective
